# Source: patent US11841369B2, “Method for improving quality of therapeutic cell through real-time glutathione measurement” (CELL2IN, INC., priority 2017, dated 2023)
# Legend:
# hUC-MSCs [1] = test: Mitochondrial GSH (mGSH) distribution after RSL3, MitoFreSH-Tracer, flow cytometry and confocal imaging; format: cell-based, human
# Method: After the cultured human umbilical cord-derived mesenchymal stem cells (hUC-MSCs) at passage 4, 7 or 15 were treated with various concentrations of RSL3 and stained with MitoFreSH, the distribution pattern of mitochondrial GSH (mGSH) in the cells was confirmed by histograms using flow cytometry and confocal imaging.
# hUC-MSCs at passage 4, 7 or 15 were prepared, seeded at 70000 cells/well in a 6-well cell culture plate, and cultured at 37° C. for 24 hours. The medium used in the culture was prepared by adding 10% fetal bovine serum and 1× penicillin-streptomycin to α-MEM. […] The cells detached from the plate were transferred to an FACS tube and stored on ice, and a fluorescence level was measured using a flow cytometer.
# hUC-MSCs at passage 4, 7 or 15 were prepared, seeded at 7000 cells/100 μl per well in a 96-well cell culture plate, and cultured at 37° C. for 24 hours. […] To remove MitoFreSH-Tracer from the medium before measurement, the medium was exchanged with fresh 10 mM HEPES-containing HBSS, and fluorescence images were measured using a confocal imaging system, Operetta.
# A F510/F580 ratio referring to a GSH mean value in cells was calculated by measuring fluorescence values of F510 (fluorescence value when MitoFreSH-Tracer was bound with SH) and F580 (fluorescence value of MitoFreSH-Tracer, which was not bound with SH) in cells and dividing the F510 value by the F580 value. […]
# hUC-MSCs [2] = test: CD146 surface expression in mGSH^High and mGSH^Low cells after RSL3, flow cytometry; format: cell-based, human; details: P4 hUC-MSC, compared with mGSH level-maintaining group
# Source text: To confirm whether the stem cell function of cells in which an mGSH level decreased is deteriorated under lipid oxidative stress caused by RSL3 treatment, an expression level of CD146, which is a cell surface protein known to be highly expressed in stem cells of high quality according to conventional literature, was confirmed through flow cytometry.
# The cells were stained by the same method as a method of measuring a mitochondria GSH level through the flow cytometry as described above, and detached from the plate using trypsin. The detached cells were treated with an antibody for flow cytometry with respect to CD146 to which a fluorescent material BUV395 was bound at 4° C. for 30 minutes, and washed with PBS. Using a flow cytometer, F510 and F580 fluorescence values for measuring a GSH level and a BUV395 fluorescence value for measuring CD146 expression were measured. Afterward, based on the point at which the histogram showing the F510/F580 distribution was divided into two peaks, the cells were divided into GSH^High cells (right peak) and GSH^Low cells (left peak) using FlowJo software, and a CD146-positive ratio of the corresponding cells is represented as a percentage (%).
# human dermal fibroblasts = test: mGSH distribution after RSL3 in human dermal fibroblasts, confocal imaging; format: cell-based; details: as the subculture continued
# Method: As described in the experiment for MSCs, human dermal fibroblasts subcultured several times were treated with RSL3 and the cells were stained with MitoFreSH-Tracer, and a ratio between cells maintaining mGSH and cells not maintaining mGSH was represented as a percentage through confocal imaging.
# hUC-MSCs [3] = test: CFU-F assay of hUC-MSCs; format: cell-based, human; details: ferrostatin-1 0.2, 1, 2, 4 μM or liproxstatin-1 0.1, 0.5, 1, 2 μM, 24 hours
# Method: The inventors observed an effect of the material on stem cells by treating each stem cells with a material for enhancing a glutathione evaluation parameter. When hUC-MSCs were subcultured in a L-AA2G-containing medium, CFU-F, migration capacity, and an anti-inflammatory effect were observed. A CFU-F assay (n=3) was performed by treating hUC-MSCs with 125 or 250 μg/mL of AA2G for three days. As shown in FIGS. 16A and 16B, it was confirmed that, when AA2G was treated, CFU-F increased. In addition, as hUC-MSCs were treated with 125 or 250 μg/mL of AA2G for three days, PDGF-AA-induced migration capacity (n=3) was analyzed. As shown in FIGS. 17A and 17B, it was confirmed that the migration capacity was increased by AA2G treatment. In addition, the reduction in T cell proliferation, a reduction in T cell differentiation, and the promotion of Treg cell differentiation were observed by treating hUC-MSCs with 125 or 250 μg/mL of AA2G for three days. […] Meanwhile, hUC-MSCs were cultured with a glutathione precursor such as γ-glutamyl cysteine (GGC, 0.1, 0.25, and 0.5 mM). A CFU-F assay (n=3) was performed by treating hUC-MSCs with each concentration of GGC for 2 hours. […] In addition, SDF1α and PDGF-AA-induced migration capacities (n=3) were analyzed for hUC-MSCs without treatment with GGC, and SDF1α- and PDGF-AA-induced migration abilities (n=3) were analyzed by treating hUC-MSCs with the increasing concentrations of GGC. STI571 was used as a PDGFR kinase inhibitor. As shown in FIGS. 20A to 20C, it was confirmed that, according to an increase in GGC treatment concentration, SDF1α- and PDGF-AA-induced migration capacities were enhanced. A CFU-F assay (n=3) was performed by treating hUC-MSCs with 0.2, 1, 2, and 4 μM ferrostatin-1 and 0.1, 0.5, 1, and 2 μM liproxstatin-1 for 24 hours.
# T cells = test: Anti-inflammatory effect of treated hUC-MSCs: T cell proliferation, T cell differentiation, Treg cell differentiation; format: cell-based
# Method: The inventors observed an effect of the material on stem cells by treating each stem cells with a material for enhancing a glutathione evaluation parameter. When hUC-MSCs were subcultured in a L-AA2G-containing medium, CFU-F, migration capacity, and an anti-inflammatory effect were observed. A CFU-F assay (n=3) was performed by treating hUC-MSCs with 125 or 250 μg/mL of AA2G for three days. As shown in FIGS. 16A and 16B, it was confirmed that, when AA2G was treated, CFU-F increased. In addition, as hUC-MSCs were treated with 125 or 250 μg/mL of AA2G for three days, PDGF-AA-induced migration capacity (n=3) was analyzed. As shown in FIGS. 17A and 17B, it was confirmed that the migration capacity was increased by AA2G treatment. In addition, the reduction in T cell proliferation, a reduction in T cell differentiation, and the promotion of Treg cell differentiation were observed by treating hUC-MSCs with 125 or 250 μg/mL of AA2G for three days.
# In addition, hUC-MSCs were cultured with ferrostatin-1 (0.2, 1, 2 and 4 μM) and liproxstatin-1 (0.1, 0.5, 1 and 2 μM), which control a glutathione level in cells by inhibiting lipid oxidation. […] Meanwhile, the hUC-MSCs were treated with 1 μM ferrostatin-1 for 24 hours, 0.2 mM GGC for 2 hours, and 2 mM GSH-EE for 2 hours. As a result, the reduction in T cell proliferation ability and the reduction in T cell differentiation capacity were observed, and promotion of Treg cell differentiation was observed.
# [4] = hUC-MSCs treated with 1 μM ferrostatin-1 24 h, 0.2 mM GGC 2 h or 2 mM GSH-EE 2 h
Compound,"mGSH levels (hUC-MSCs [1]; hUC-MSCs passage 4, 7 or 15, RSL3 0.1/0.5/1 μM, dependent on RSL3 concentration and passage number)",lowering of CD146-positive ratio in group in which mGSH level is lowered by RSL3 (hUC-MSCs [2]),proportion of cells in which mGSH decreases by treatment with RSL3 (human dermal fibroblasts),effect of RSL3 on mGSH upon Ferrostatin-1 treatment (hUC-MSCs [1]; hUC-MSCs treated with RSL3 (FIG. 33)),CFU-F (hUC-MSCs [3]),"anti-inflammatory effect of the hUC-MSCs (T cells; ferrostatin-1 or liproxstatin-1 treatment (FIGS. 27, 28A to 28C))",T cell differentiation capacity (T cells; [4]),T cell proliferation ability (T cells; [4]),Treg cell differentiation (T cells; [4])
"COC(=O)c1ccc([C@@H]2c3[nH]c4ccccc4c3C[C@@H](C(=O)OC)N2C(=O)CCl)cc1 [RSL3, 1S,3R-RAS-selective lethal 3]",reduced,approximately 25%,increased,–,–,–,–,–,–
CCOC(=O)c1ccc(NC2CCCCC2)c(N)c1 [ferrostatin-1],–,–,–,disappeared,improved,did not alter,reduction,reduction,promotion
